Assay: Dissolving power of UV photoprotective filters in phenoxyalkyl esters
Assay type: physicochemical
Settings: percent by weight, 22° C.; for Dissolving power for Benzophenone-3: maximum dissolvable amount of UV filter Benzophenone-3 (BP-3) in the substance; for Dissolving power for BMDM: maximum dissolvable amount of UV filter Butyl Methoxydibenzoylmethane (BMDM) in the substance; for Dissolving power for Tinosorb S: maximum dissolvable amount of UV filter Tinosorb S (Bemotrizinol, BEMT) in the substance; for Dissolving power for Uvinul T 150: maximum dissolvable amount of UV filter Uvinul T 150 (Octyl Triazone, EHT) in the substance
Text: To test the dissolving power of crystalline UV photoprotective filters in phenoxyalkyl esters, four representative UV-A and/or UV-B photoprotective filters were selected by way of representation. These were benzophenone-3 (2-hydroxy-4-methoxybenzophenone, BP-3), Butyl Methoxydibenzoylmethane (BMDM), Octyl Triazone (2,4,6-trianilino-p-(carbo-2′-ethylhexyl-1′-oxy)-1,3,5-triazines, EHT) and Bemotrizinol (bis-ethylhexyloxyphenol meth-oxyphenyl triazine, BEMT).
To determine the dissolving power for these […] UV photoprotective filters, in each case a certain amount (50 g) of one of the compounds according to the invention was initially introduced and heated to 22° C. One (1) percent by weight of a UV photoprotective filter was added and the mixture was stirred until this amount had dissolved completely and homogeneously. This operation was repeated until the maximum dissolvable amount of the UV photoprotective filter was exceeded. For complete dissolution in the case of relatively high concentrations, a prolonged stirring time of several hours was often necessary.
If the maximum concentration had been roughly determined in this way, to finely determine the concentration range around this maximum concentration the procedure was repeated using smaller initial weight amounts of the […] photoprotective filter.
The reference used was the compound Tegosoft® TN (C12-15 alkyl benzoate).

CCCCCC(CCC)C(=O)OCCOc1ccccc1 (centres unmarked) [2-Phenoxyethyl 2-propylheptanoate]
Dissolving power for Benzophenone-3: 20% | Dissolving power for BMDM: 13% | Dissolving power for Tinosorb S: 9% | Dissolving power for Uvinul T 150: 4%

CCCCCCCC(=O)OC(C)COc1ccccc1 (centres unmarked) [1-Phenoxy-2-propyl caprylate, 1-phenoxy-2-propyloctanoic acid ester]
Dissolving power for Benzophenone-3: 21% | Dissolving power for BMDM: 14% | Dissolving power for Tinosorb S: 9% | Dissolving power for Uvinul T 150: 6%

CCCCCCCC(=O)OCCOc1ccccc1 [2-Phenoxyethyl caprylate, 2-phenoxyethyloctanoic acid ester]
Dissolving power for Benzophenone-3: 28% | Dissolving power for BMDM: 18% | Dissolving power for Tinosorb S: 11% | Dissolving power for Uvinul T 150: 6%

CCCCC(CC)C(=O)OCCOc1ccccc1 (centres unmarked) [2-Phenoxyethyl 2-ethylhexanoate, 2-phenoxyethyl-2-ethylhexanoic acid ester]
Dissolving power for Benzophenone-3: 25% | Dissolving power for BMDM: 17% | Dissolving power for Tinosorb S: 12% | Dissolving power for Uvinul T 150: 4%

CC(COc1ccccc1)OC(=O)C1CCCCC1 (centres unmarked) [1-Phenoxy-2-propyl cyclohexanoate, 1-phenoxy-2-propylcyclohexanecarboxylic acid ester]
Dissolving power for Benzophenone-3: 27% | Dissolving power for BMDM: 16% | Dissolving power for Tinosorb S: 10% | Dissolving power for Uvinul T 150: 6%

O=C(OCCOc1ccccc1)C1CCCCC1 [2-Phenoxyethyl cyclohexanoate, 2-phenoxyethylcyclohexanecarboxylic acid ester]
Dissolving power for Benzophenone-3: 30% | Dissolving power for BMDM: 19% | Dissolving power for Tinosorb S: 12% | Dissolving power for Uvinul T 150: 6%

CCCCCCC(CCCC)C(=O)OCCOc1ccccc1 (centres unmarked) [2-Phenoxyethyl 2-butyloctanoate, 2-phenoxyethyl-2-butyloctanoic acid ester]
Dissolving power for Benzophenone-3: 19% | Dissolving power for BMDM: 14% | Dissolving power for Tinosorb S: 8% | Dissolving power for Uvinul T 150: 5%

CCCCCC(=O)OCCOc1ccccc1 [2-Phenoxyethyl caproate]
Dissolving power for Benzophenone-3: 28% | Dissolving power for BMDM: 18% | Dissolving power for Tinosorb S: 11% | Dissolving power for Uvinul T 150: 6%

CCCCC(CC)C(=O)OC(C)COc1ccccc1 (centres unmarked) [1-Phenoxy-2-propyl 2-ethylhexanoate]
Dissolving power for Benzophenone-3: 21% | Dissolving power for BMDM: 15% | Dissolving power for Tinosorb S: 9% | Dissolving power for Uvinul T 150: 4%

C12-15 alkyl benzoate [Tegosoft ® TN, reference compound]
Dissolving power for Benzophenone-3: 15% | Dissolving power for BMDM: 13% | Dissolving power for Tinosorb S: 9% | Dissolving power for Uvinul T 150: 4%

CC(C)CCCCCC(=O)OCCOc1ccccc1 [2-Phenoxyethyl isononanoate]
Dissolving power for Benzophenone-3: 25% | Dissolving power for BMDM: 16% | Dissolving power for Tinosorb S: 9% | Dissolving power for Uvinul T 150: 4%
